Reference: patent US11279733B2, “Peptide antibiotics” (priority 2017, dated 2022)
Converted amounts (≈) assume the structure as drawn. Like-named read-outs stand apart in the source and are kept apart here. Positions of bridges follow the written chain, without caps; N, C: chain ends. Non-standard residues stand in square brackets, D forms with d. Residues, ends and D or L forms follow the SMILES beside them. *: point of attachment. Isonicotinoyl(2-Ph) = O=C(c1ccnc(-c2ccccc2)c1)*; Benzoyl(4-OPh) = O=C(c1ccc(Oc2ccccc2)cc1)*; Benzoyl(4-Ph) = O=C(c1ccc(-c2ccccc2)cc1)*; Butanoyl(4-OPh) = O=C(CCCOc1ccccc1)*; X1 = CCCCCCCN1CCC(C(=O)*)CC1; dDab = NCC[C@@H](N)C(=O)O; Dab = NCC[C@H](N)C(=O)O; X5 = O=C(CCCCCCCO)*

Experiments:
[1] = in vitro; details: human
How it was run: (§1)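 Cells (4000/well, pre-attached 24 h) then received 5 μM resazurin for 2 h, with fluorescence measured at ex 560/em 590.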

[2] = tested on: A. baumannii GN_093 PmxR; details: GN 093 PmxR
How it was run: (§2)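 Mid-log cultures grown in Mueller Hinton broth at 37° C were tested by 2-fold broth microdilution at 5×10^5 CFU/mL final. Compounds were dissolved in water and tested over a final range of 32 to 0.015 μg/mL.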

[3] = tested on: P. aeruginosa GN_105, PmxR; details: GN 105, PmxR
How it was run: as §2

[4] = tested on: A. baumannii ATCC 19606; details: ATCC 19606
How it was run: as §2

[5] = tested on: S. aureus ATCC 25923, MSSA; details: ATCC 25923
How it was run: as §2

[6] = tested on: P. aeruginosa GN_043, PmxR
How it was run: as §2

[7] = tested on: E. coli ATCC 25922; details: ATCC 25922
How it was run: as §2

[8] = tested on: K. pneumoniae ATCC BAA-2146, NDM-1 pos; details: ATCC BAA-2146
How it was run: as §2

[9] = tested on: K. pneumoniae ATCC 700603, MDR; details: ATCC 700603
How it was run: as §2

[10] = tested on: P. aeruginosa ATCC 27853; details: ATCC 27853
How it was run: as §2

[11] = tested on: K. pneumoniae ATCC 13883; details: ATCC 13883
How it was run: as §2

[12] = tested on: K. pneumoniae GN_102 PmxR; details: GN 102 PmxR
How it was run: as §2

[13] = tested on: K. pneumoniae GN_106, PmxR; details: GN 106, PmxR
How it was run: as §2

[14] = in vitro; details: human; remark: listed apart in the source
How it was run: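 HK2 cells were seeded at 2000 per well in DMEM/F12 with 10% FBS and left to attach for 24 h at 37 °C, 5% CO2. They were then exposed for 24 h to 3-fold peptide dilutions starting from 600 μM solutions in quadruplicate. LDH release was read at 450 nm, and CC50 was fitted from dose-response curves.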

[15] = in vitro; details: human; remark: listed apart in the source
How it was run: as §1

Compound | CC50 at 24 h [1] | MIC A. baumannii GN_093 PmxR [2] | MIC P. aeruginosa GN_105, PmxR [3] | MIC A. baumannii ATCC 19606 [4] | MIC S. aureus ATCC 25923, MSSA [5] | MIC P. aeruginosa GN_043, PmxR ([6]; P. aeruginosa GN_043, PmxR) | MIC E. coli ATCC 25922 [7] | MIC K. pneumoniae ATCC BAA-2146, NDM-1 pos [8] | MIC K. pneumoniae ATCC 700603, MDR [9] | MIC P. aeruginosa ATCC 27853 [10] | MIC K. pneumoniae ATCC 13883 [11] | MIC K. pneumoniae GN_102 PmxR [12] | MIC K. pneumoniae GN_106, PmxR [13] | CC50 at 24 h [14] | CC50 at 24 h [15] | MIC P. aeruginosa GN_043, PmxR [6]
CC(C)C[C@@H]1NC(=O)[C@H](CCN)NC(=O)[C@H](CCN)NC(=O)[C@H](Cc2ccccc2)NC(=O)[C@@H](CC(C)C)NC(=O)[C@H](CCN)NC(=O)[C@@H](NC(=O)[C@@H](CCN)NC(=O)c2ccnc(-c3ccccc3)c2)CCNC1=O [compound 6517, 3Phe4-PyCO-D-Dab-cyc[L-Dab-L-Dab-D-Leu-L-Phe-L-Dab-L-Dab-L-Leu]] ({Isonicotinoyl(2-Ph)}-[dDab][Dab][Dab][dL]F[Dab][Dab]L; lactam 2-C) | > 300 µM | >32 µg/mL | 4 µg/mL (≈ 3.79 µM) | >32 µg/mL | >32 µg/mL | 1 µg/mL (≈ 0.948 µM) | 8 µg/mL (≈ 7.58 µM) | 32 µg/mL (≈ 30.3 µM) | 8 µg/mL (≈ 7.58 µM) | 2 µg/mL (≈ 1.9 µM) | 32 µg/mL (≈ 30.3 µM) | >32 µg/mL | 32 µg/mL (≈ 30.3 µM) | > 300 µM | > 300 µM | –
CC(C)C[C@@H]1NC(=O)[C@H](CCN)NC(=O)[C@H](CCN)NC(=O)[C@H](Cc2ccccc2)NC(=O)[C@@H](CC(C)C)NC(=O)[C@H](CCN)NC(=O)[C@@H](NC(=O)[C@@H](CCN)NC(=O)c2ccc(-c3ccccc3)cc2)CCNC1=O [compound 6518, Ph-4-PhCO-D-Dab-cyc[L-Dab-L-Dab-D-Leu-L-Phe-L-Dab-L-Dab-L-Leu]] ({Benzoyl(4-Ph)}-[dDab][Dab][Dab][dL]F[Dab][Dab]L; lactam 2-C) | > 300 µM | >32 µg/mL | 2 µg/mL (≈ 1.9 µM) | >32 µg/mL | 32 µg/mL (≈ 30.4 µM) | 2 µg/mL (≈ 1.9 µM) | 2 µg/mL (≈ 1.9 µM) | 16 µg/mL (≈ 15.2 µM) | 8 µg/mL (≈ 7.59 µM) | 2 µg/mL (≈ 1.9 µM) | 16 µg/mL (≈ 15.2 µM) | >32 µg/mL | 32 µg/mL (≈ 30.4 µM) | 180 µM | ≥ 300 µM | –
CC(C)C[C@@H]1NC(=O)[C@H](CCN)NC(=O)[C@H](CCN)NC(=O)[C@H](Cc2ccccc2)NC(=O)[C@@H](CC(C)C)NC(=O)[C@H](CCN)NC(=O)[C@@H](NC(=O)[C@@H](CCN)NC(=O)c2ccc(Oc3ccccc3)cc2)CCNC1=O [compound 6519, Ph-4-OPhCO-D-Dab-cyc[L-Dab-L-Dab-D-Leu-L-Phe-L-Dab-L-Dab-L-Leu]] ({Benzoyl(4-OPh)}-[dDab][Dab][Dab][dL]F[Dab][Dab]L; lactam 2-C) | > 300 µM | 32 µg/mL (≈ 29.9 µM) | 4 µg/mL (≈ 3.74 µM) | >32 µg/mL | 32 µg/mL (≈ 29.9 µM) | 1 µg/mL (≈ 0.934 µM) | 2 µg/mL (≈ 1.87 µM) | 16 µg/mL (≈ 14.9 µM) | 8 µg/mL (≈ 7.47 µM) | 2 µg/mL (≈ 1.87 µM) | 16 µg/mL (≈ 14.9 µM) | >32 µg/mL | 32 µg/mL (≈ 29.9 µM) | 163 µM | > 300 µM | –
CC(C)C[C@@H]1NC(=O)[C@H](CCN)NC(=O)[C@H](CCN)NC(=O)[C@H](Cc2ccccc2)NC(=O)[C@@H](CC(C)C)NC(=O)[C@H](CCN)NC(=O)[C@@H](NC(=O)[C@@H](CCN)NC(=O)CCCOc2ccccc2)CCNC1=O [compound 6521, 4-phenoxybutanoic acid-D-Dab-cyc[L-Dab-L-Dab-D-Leu-L-Phe-L-Dab-L-Dab-L-Leu]] ({Butanoyl(4-OPh)}-[dDab][Dab][Dab][dL]F[Dab][Dab]L; lactam 2-C) | > 300 µM | >32 µg/mL | 16 µg/mL (≈ 15.4 µM) | >32 µg/mL | >32 µg/mL | 2 µg/mL (≈ 1.93 µM) | 8 µg/mL (≈ 7.72 µM) | 16 µg/mL (≈ 15.4 µM) | 16 µg/mL (≈ 15.4 µM) | 2 µg/mL (≈ 1.93 µM) | 32 µg/mL (≈ 30.9 µM) | 16 µg/mL (≈ 15.4 µM) | 32 µg/mL (≈ 30.9 µM) | 290 µM | > 300 µM | –
CC(C)C[C@@H]1NC(=O)[C@H](CCN)NC(=O)[C@H](CCN)NC(=O)[C@H](CC(C)C)NC(=O)[C@@H](Cc2ccccc2)NC(=O)[C@H](CCN)NC(=O)[C@@H](NC(=O)[C@@H](CCN)NC(=O)CCCCCCCO)CCNC1=O [compound 6522, 8OH-nC7CO-D-Dab-cyc[L-Dab-L-Dab-D-Phe-L-Leu-L-Dab-L-Dab-L-Leu]] (X5-[dDab][Dab][Dab][dF]L[Dab][Dab]L; lactam 2-C) | > 300 µM | >32 µg/mL | >32 µg/mL | >32 µg/mL | >32 µg/mL | – | >32 µg/mL | >32 µg/mL | >32 µg/mL | 2 µg/mL (≈ 1.97 µM) | >32 µg/mL | >32 µg/mL | >32 µg/mL | 208 µM | > 300 µM | 2 µg/mL (≈ 1.97 µM)
CCCCCCCN1CCC(C(=O)N[C@H](CCN)C(=O)N[C@H]2CCNC(=O)[C@H](CC(C)C)NC(=O)[C@H](CCN)NC(=O)[C@H](CCN)NC(=O)[C@H](CC(C)C)NC(=O)[C@@H](Cc3ccccc3)NC(=O)[C@H](CCN)NC2=O)CC1 [compound 6524, 1-heptylpiperidine-4-carboxylic acid-D-Dab-cyc[L-Dab-L-Dab-D-Phe-L-Leu-L-Dab-L-Dab-L-Leu]] (X1-[dDab][Dab][Dab][dF]L[Dab][Dab]L; lactam 2-C) | > 300 µM | >32 µg/mL | 2 µg/mL (≈ 1.85 µM) | >32 µg/mL | 32 µg/mL (≈ 29.5 µM) | – | 32 µg/mL (≈ 29.5 µM) | 32 µg/mL (≈ 29.5 µM) | >32 µg/mL | 1 µg/mL (≈ 0.923 µM) | >32 µg/mL | >32 µg/mL | 32 µg/mL (≈ 29.5 µM) | 106 µM | > 300 µM | 0.5 µg/mL (≈ 0.461 µM)
CC(C)C[C@@H]1NC(=O)[C@H](CCN)NC(=O)[C@H](CCN)NC(=O)[C@H](CC(C)C)NC(=O)[C@@H](Cc2ccccc2)NC(=O)[C@H](CCN)NC(=O)[C@@H](NC(=O)[C@@H](CCN)NC(=O)c2ccnc(-c3ccccc3)c2)CCNC1=O [compound 6525, 3Phe4-PyCO-D-Dab-cyc[L-Dab-L-Dab-D-Phe-L-Leu-L-Dab-L-Dab-L-Leu]] ({Isonicotinoyl(2-Ph)}-[dDab][Dab][Dab][dF]L[Dab][Dab]L; lactam 2-C) | > 300 µM | >32 µg/mL | 8 µg/mL (≈ 7.58 µM) | >32 µg/mL | >32 µg/mL | – | 4 µg/mL (≈ 3.79 µM) | 16 µg/mL (≈ 15.2 µM) | 8 µg/mL (≈ 7.58 µM) | 4 µg/mL (≈ 3.79 µM) | 16 µg/mL (≈ 15.2 µM) | 16 µg/mL (≈ 15.2 µM) | >32 µg/mL | > 300 µM | > 300 µM | 2 µg/mL (≈ 1.9 µM)
CC(C)C[C@@H]1NC(=O)[C@H](CCN)NC(=O)[C@H](CCN)NC(=O)[C@H](CC(C)C)NC(=O)[C@@H](Cc2ccccc2)NC(=O)[C@H](CCN)NC(=O)[C@@H](NC(=O)[C@@H](CCN)NC(=O)CCCOc2ccccc2)CCNC1=O [compound 6529, 4-phenoxybutanoic acid-D-Dab-cyc[L-Dab-L-Dab-D-Phe-L-Leu-L-Dab-L-Dab-L-Leu]] ({Butanoyl(4-OPh)}-[dDab][Dab][Dab][dF]L[Dab][Dab]L; lactam 2-C) | > 300 µM | >32 µg/mL | 16 µg/mL (≈ 15.4 µM) | >32 µg/mL | >32 µg/mL | – | 8 µg/mL (≈ 7.72 µM) | 32 µg/mL (≈ 30.9 µM) | 32 µg/mL (≈ 30.9 µM) | 2 µg/mL (≈ 1.93 µM) | 16 µg/mL (≈ 15.4 µM) | >32 µg/mL | >32 µg/mL | 199 µM | > 300 µM | 1 µg/mL (≈ 0.965 µM)
